Experimental data published in patent publication US4148919A, “7-Amino-6,7-dihydro [5H]benzocycloheptene derivatives” (Roussel Uclaf, priority 1975, dated 1979).

Key:
mice [1] = assay: Acute toxicity; type: in vivo; settings: intraperitoneal administration, determined 48 hours later
Description: The DL50 dose which kills 50% of mice after intraperitoneal administration of the tested compound was determined 48 hours later and the DL50 for the compound of Example 1 was about 75 mg/kg.

serotonine (5HT) uptake [2] = assay: Inhibition of Serotonine uptake in vivo (synaptosomes from treated rats); design: species or system rat; key: the activity was expressed in increasing number of + signs; settings: 20 mg/kg intraperitoneal, female rats, brain removed after 30 minutes
Description: (§1) The inhibition of serotonine (5HT) uptake was measured in impure synaptosomes prepared from the entire brain of a female rat 19 to 21 days old using the technique of Kannengiesser et al. [Biochemical Pharmacology,Vol. 22, (1973) p. 73].
The tested products were intraperitoneally administered to groups of female rats 19 to 21 days old at doses of 5 to 20 mg/kg. After 30 minutes, the brain was removed and synaptosomes were prepared and placed in an incubator in the presence of 14 C-5HT as indicated in the previous test.

mice [3] = assay: Potentialization of effects of monoamine oxidase inhibitor (nialamide hyperactivity, actimetry); type: in vivo; design: key: ++: expressed in increasing number of + signs for a determined dose in mg/kg; +++: expressed in increasing number of + signs for a determined dose in mg/kg; settings: 30 minutes after nialamide 100 mg/kg i.p., actimetry for 6 hours
Description: The administration of a monoamine oxidase inhibitor to mice induces a hyperactive movement of the animals which is able to be potentialized by an antidepressant. Using the procedure of Carlsson et al. [Brain Research, Vol. 12 (1969), p. 456], a dose of 100 mg/kg of nialamide was intraperitoneally administered to mice 30 minutes before the intraperitoneal administration of the tested product and the values of actimetric measurements were recorded every 30 minutes for 6 hours. Potentiation of the effects of nialamide for the tested product was expressed in increasing number of + signs for a determined dose in mg/kg.

mice [4] = assay: Potentiation of effects of L-dopa in iproniazide-pretreated mice; type: in vivo; settings: male mice, intraperitoneal, iproniazide 75 mg/kg 18 hours before, L-dopa 100 mg/kg i.p. one hour after product; 60 min
Description: The administration of L-dopa to mice pretreated 18 hours previously with iproniazide produced certain number of symptoms; muscular hypertonicity, hyperactivity, agitation, crying, aggressiveness, salivation and exophthalmy. The intensity of these effects is potentiated by administration of an antidepressant one hour before the administration of L-dopa. Male mices received intraperitoneally 75 mg/kg of iproniazide 18 hours before the start of the test and the tested product was intraperitoneally administered in aqueous solution in increasing doses. One hour later, L-dopa was intraperitoneally administered at a dose of 100 mg/kg and the different symptoms were observed 15 and 30 minutes later. They were evaluated on a scale of 0 to 3 for each animal and the totals for each dose were determined. The ED50 dose which potentiates by 50% the L-dopa effects was determined to be about 20 mg/kg for the product of Example 1.

serotonine (5HT) uptake [5] = assay: Inhibition of Serotonine uptake in vitro (impure brain synaptosomes); type: biochemical; settings: female rat brain synaptosomes, 37° C. 5 minutes, 14C-5HT 10^-7 M
Description: as §1

## 7-amino-6,7-dihydro [5H] benzocycloheptene-hydrochloride [Example 1]
Mice [1]
  DL50 dose which kills 50% of mice: about 75 mg/kg
Serotonine (5HT) uptake [2]
  Relative power to inhibit the uptake of 14C-5HT: +
Mice [3]; 5 mg/kg intraperitoneal
  Potentiation of the effects of nialamide: ++
Mice [3]; 20 mg/kg intraperitoneal
  Potentiation of the effects of nialamide: +++
Mice [4]
  ED50 dose which potentiates by 50% the L-dopa effects: about 20 mg/kg
Serotonine (5HT) uptake [5]
  IC50: ~2400 nM
